What was measured:
[1] = relative to therapeutic concentration range of 1.4 to 10.7 ng/ml; cited from earlier work
[2] = In vitro iontophoretic flux of rotigotine, three-chamber flow-through diffusion cells; assay type: in vitro ADME, human; details: donor pH 5, 500 μA/cm^2, 20° C.
Method: In vitro iontophoretic studies for the administration of rotigotine were carried out with three-chamber flow-through diffusion cells as described by […] al. ([…]. Boddé, “Validation and testing of a new iontophoretic continuous flow through transport cell”, J. Control. Release (1998), 51, […]). On both sides of the acceptor compartment human stratum corneum (SC) was situated. A dialysis membrane having a 5.000 Da cut-off was used as supporting membrane. The volume of the outer chambers was approximately 2 ml, while the volume of the acceptor compartment was 0.54 ml. The two outer chambers contained the silver plate (anode) or silver/silver chloride (cathode) driver […]. The donor phase consisted of rotigotine solution buffered with 5 mM citrate buffer (2.1 mM sodium citrate dihydrate and 2.9 mM citric acid). Using this set-up, a pH in the donor chamber of 5, a current density of 500 μA/cm^2, a pH in the acceptor chamber of 7.4, a temperature of 20° C. and an NaCl concentration in the donor chamber of 70 mmol/l, the flux of rotigotine was measured for different drug concentrations in the donor phase. Using a similar procedure as in Example 1 and a concentration of rotigotine of 1.4 mg/ml (3.98 mM), a pH in the donor chamber of 5, a current density of 500 μA/cm^2, a pH in the acceptor chamber of 7.4 and a temperature of 20° C., but substituting triethylammonium chloride (TEACl) or tributylammonium chloride (TBACl) for NaCl, the influence of the different cations on the flux was evaluated. The concentration of the chloride salts in the donor solution was 70 mmol/l. Using a similar procedure and the same parameters as in Example 2, the influence of reducing the pH in the acceptor chamber from 7.4 to 6.2 was evaluated for different chloride salts. The concentration of the chloride salts in the donor solution was 70 mmol/l.

[3] = Solubility of rotigotine in the donor phase; assay type: physicochemical
Source text: To provide for an optimal flux across human stratum corneum it was also necessary to provide for a sufficient concentration of Cl^− ions for the electrode reaction in the donor phase.

[4] = relative to therapeutic range; cited from earlier work

CN1CCc2cccc3c2[C@H]1Cc1ccc(O)c(O)c1-3 [R-apomorphine, (R)-5,6,6a,7-tetrahydro-6-methyl-4H-dibenzoquinoline-11,12-diol]
concentrations obtained by iontophoretic administration [1]: lower end of the therapeutic concentration range

CCCN(CCc1cccs1)[C@H]1CCc2c(O)cccc2C1 [Rotigotine, (−)-5,6,7,8-tetrahydro-6-[propyl-[2-(2-thienyl)ethyl]-amino]-1-naphthalenol]
Flux Rotigotine ([2]; co-ions source NaCl 70 mmol/l, rotigotine 1.4 mg/ml (3.98 mM), acceptor pH 7.4): 53.2 nmol/cm^2/h
Flux Rotigotine ([2]; co-ions source NaCl 70 mmol/l, rotigotine 1.4 mg/ml, acceptor pH 6.2): 58.9 nmol/cm^2/h
Flux Rotigotine ([2]; co-ions source TBACl 70 mmol/l, rotigotine 1.4 mg/ml (3.98 mM), acceptor pH 7.4): 62.0 nmol/cm^2/h
Flux Rotigotine ([2]; co-ions source TBACl 70 mmol/l, rotigotine 1.4 mg/ml, acceptor pH 6.2): 76.5 nmol/cm^2/h
Flux Rotigotine ([2]; co-ions source TEACl 70 mmol/l, rotigotine 1.4 mg/ml (3.98 mM), acceptor pH 7.4): 72.8 nmol/cm^2/h
Flux Rotigotine ([2]; co-ions source TEACl 70 mmol/l, rotigotine 1.4 mg/ml, acceptor pH 6.2): 43.2 nmol/cm^2/h
Flux Rotigotine ([2]; rotigotine donor conc. 0.5 mg/ml (1.4 mM), NaCl 70 mmol/l, acceptor pH 7.4): 22.9 nmol/cm^2/h
Flux Rotigotine ([2]; rotigotine donor conc. 1.0 mg/ml (2.8 mM), NaCl 70 mmol/l, acceptor pH 7.4): 30.2 nmol/cm^2/h
Flux Rotigotine ([2]; rotigotine donor conc. 1.4 mg/ml (3.98 mM), NaCl 70 mmol/l, acceptor pH 7.4): 53.2 nmol/cm^2/h
solubility of rotigotine ([3]; effect of addition of chloride salts): reduces the solubility
solubility of rotigotine ([3]; effect of increasing pH): decreases when the pH is increased

CCCN(CCC)CCc1cccc2c1CC(=O)N2 [ropinirole]
fluxes obtained by iontophoretic administration [4]: lower end of the therapeutic range

— US7632859B2, “Iontophoretic delivery of rotigotine for the treatment of Parkinson's disease” (Schwarz Pharma AG, priority 2002, dated 2009)
